This is an account of results in ChEMBL document CHEMBL1153519, “Characterization of novel selective H1-antihistamines for clinical evaluation in the treatment of insomnia” (J Med Chem, 2009).

Structures are written as SMILES. Active and inactive are the calls of the source. The rule behind the calls is not given here.

Data set [1] addresses T1, 5-hydroxytryptamine receptor 2A (Homo sapiens, UniProt P28223). The data set can be described thus: Displacement of [3H]ketanserin from human 5HT2A receptor expressed in HEK293 Flp-In cells by liquid scintillation counting. It counts as cell-based. (In a radioligand displacement assay an active substance lowers the binding of a labelled ligand.)
Data set [2] concerns the target Cytochrome P450 2D6 (Homo sapiens, UniProt P10635). The data set can be described thus: Inhibition of recombinant CYP2D6 in presence of NADPH generating system.
Data set [3] deals with Histamine H3 receptor (Homo sapiens) (UniProt Q9Y5N1). As to the kind of experiment: Displacement of [3H]R-alpha-methylhistamine from human histamine H3 receptor expressed in CHO Flp-In cells by liquid scintillation counting. It counts as cell-based.
Sequence of Histamine H3 receptor (Homo sapiens) (Q9Y5N1 whole entry): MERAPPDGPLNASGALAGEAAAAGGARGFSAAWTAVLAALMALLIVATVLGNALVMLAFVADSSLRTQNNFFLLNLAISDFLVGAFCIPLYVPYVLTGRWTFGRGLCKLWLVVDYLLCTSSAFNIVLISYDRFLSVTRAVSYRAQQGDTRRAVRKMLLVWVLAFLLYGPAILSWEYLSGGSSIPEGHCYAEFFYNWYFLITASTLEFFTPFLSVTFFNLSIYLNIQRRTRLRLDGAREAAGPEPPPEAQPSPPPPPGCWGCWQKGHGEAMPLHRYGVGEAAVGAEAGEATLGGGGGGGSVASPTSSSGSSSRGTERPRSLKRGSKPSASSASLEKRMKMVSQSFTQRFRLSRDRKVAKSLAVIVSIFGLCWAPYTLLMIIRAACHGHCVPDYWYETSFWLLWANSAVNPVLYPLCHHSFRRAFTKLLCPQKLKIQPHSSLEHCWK
Data set [4] is described as follows: in vitro. As to conditions: human, liver microsomes. A general note: Microsomes from liver hold many membrane-bound enzymes, among them those of drug oxidation.
In data set [5] the target is Histamine H1 receptor (Homo sapiens, UniProt P35367). The data set can be described thus: Displacement of [3H]pyrilamine from human histamine H1 receptor expressed in CHO Flp-In cells by liquid scintillation counting. It counts as cell-based.
Sequence of Histamine H1 receptor (P35367 whole entry): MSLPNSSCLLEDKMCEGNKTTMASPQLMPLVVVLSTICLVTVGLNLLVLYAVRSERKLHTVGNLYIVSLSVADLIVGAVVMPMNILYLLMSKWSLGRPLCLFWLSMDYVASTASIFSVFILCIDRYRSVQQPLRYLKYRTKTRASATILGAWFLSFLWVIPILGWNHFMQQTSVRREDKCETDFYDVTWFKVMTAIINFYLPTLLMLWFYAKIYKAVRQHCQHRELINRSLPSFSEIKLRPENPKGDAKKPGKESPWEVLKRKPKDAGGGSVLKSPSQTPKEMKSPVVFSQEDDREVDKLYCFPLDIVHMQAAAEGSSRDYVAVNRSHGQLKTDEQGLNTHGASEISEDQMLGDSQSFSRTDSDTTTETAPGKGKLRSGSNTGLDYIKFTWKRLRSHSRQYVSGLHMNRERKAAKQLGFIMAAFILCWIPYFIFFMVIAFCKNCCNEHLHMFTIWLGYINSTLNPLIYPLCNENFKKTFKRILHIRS
Data set [6] concerns Rattus norvegicus. The data set can be described thus: Effect on sleep-awake pattern in CD IGS rat model of insomnia assessed as latency to 1 min NREM sleep at 60 mg/kg, po by EEG/EMG study relative to vehicle control. It counts as functional.
Data set [7] has as its system Rattus norvegicus. As to the kind of experiment: Effect on sleep-awake pattern in CD IGS rat model of insomnia assessed as latency to 20 secs REM sleep at 60 mg/kg, po by EEG/EMG study relative to vehicle control. Format: functional.
The test system of data set [8] is Rattus norvegicus. The data set can be described thus: Increase in REM sleep in CD IGS rat model of insomnia at 60 mg/kg, po after 4 hrs by EEG/EMG study relative to vehicle control. It counts as functional.
Data set [9] relates to Rattus norvegicus. The data set can be described thus: Increase in NREM sleep in CD IGS rat model of insomnia at 60 mg/kg, po after 4 hrs by EEG/EMG study relative to vehicle control. Format: functional.
Data set [10] in a line: Elimination half life in human at 50 mg, po. Format: ADME, organism-based. As to conditions: in vivo, read-out: beta t1/2 (converted).
A short description of data set [11]: Half life in human. Format: ADME, organism-based. As to conditions: in vivo.
Data set [12] deals with Cytochrome P450 3A4 (Homo sapiens, UniProt P08684). The data set can be described thus: Inhibition of recombinant CYP3A4 in presence of NADPH generating system. It counts as ADME. The conditions noted are these: recombinant enzyme.
Sequence of Cytochrome P450 3A4 (P08684 whole entry): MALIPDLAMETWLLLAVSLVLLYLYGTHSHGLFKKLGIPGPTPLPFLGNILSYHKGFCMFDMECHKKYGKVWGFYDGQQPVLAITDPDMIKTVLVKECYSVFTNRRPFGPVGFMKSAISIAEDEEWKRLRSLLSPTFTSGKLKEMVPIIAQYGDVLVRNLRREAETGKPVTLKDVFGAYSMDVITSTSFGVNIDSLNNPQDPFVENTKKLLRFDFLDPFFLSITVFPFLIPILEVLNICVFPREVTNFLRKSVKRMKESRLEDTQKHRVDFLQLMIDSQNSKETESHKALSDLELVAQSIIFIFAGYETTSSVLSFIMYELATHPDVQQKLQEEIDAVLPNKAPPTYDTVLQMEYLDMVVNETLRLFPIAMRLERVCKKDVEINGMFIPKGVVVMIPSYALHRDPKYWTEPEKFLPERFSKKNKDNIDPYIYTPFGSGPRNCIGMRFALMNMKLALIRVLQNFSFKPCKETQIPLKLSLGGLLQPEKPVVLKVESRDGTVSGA
Data set [13] deals with T2, Muscarinic acetylcholine receptor M1 (Homo sapiens, UniProt P11229).
T2 sequence (P11229 whole entry): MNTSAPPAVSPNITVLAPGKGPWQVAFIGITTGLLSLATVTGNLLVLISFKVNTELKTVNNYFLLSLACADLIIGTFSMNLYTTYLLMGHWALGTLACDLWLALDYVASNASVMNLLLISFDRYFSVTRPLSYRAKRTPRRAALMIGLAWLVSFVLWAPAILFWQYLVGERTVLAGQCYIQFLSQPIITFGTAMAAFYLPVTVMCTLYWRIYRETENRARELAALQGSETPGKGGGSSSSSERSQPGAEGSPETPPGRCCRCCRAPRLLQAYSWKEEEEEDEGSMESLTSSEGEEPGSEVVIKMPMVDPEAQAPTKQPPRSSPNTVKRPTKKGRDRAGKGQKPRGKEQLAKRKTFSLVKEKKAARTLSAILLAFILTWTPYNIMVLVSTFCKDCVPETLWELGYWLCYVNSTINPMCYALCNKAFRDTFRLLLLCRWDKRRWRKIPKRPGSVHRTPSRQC
As to the kind of experiment: Displacement of [3H]N-methylscopolamine from human muscarinic M1 receptor expressed in CHO Flp-In cells by liquid scintillation counting. It counts as cell-based.

Data set [14] concerns the target T1, 5-hydroxytryptamine receptor 2A. The data set can be described thus: Displacement of [3H]ketanserin from human 5HT2A receptor expressed in HEK293 Flp-In cells at 10 uM by liquid scintillation counting. It counts as cell-based.
Data set [15] deals with Voltage-gated inwardly rectifying potassium channel KCNH2 (Homo sapiens, UniProt Q12809). The data set can be described thus: Inhibition of human ERG expressed in HEK293 cells by patch-clamp technique. For orientation: The patch-clamp technique gives a direct electrical read-out from membranes.
Sequence of Voltage-gated inwardly rectifying potassium channel KCNH2 (Q12809 whole entry): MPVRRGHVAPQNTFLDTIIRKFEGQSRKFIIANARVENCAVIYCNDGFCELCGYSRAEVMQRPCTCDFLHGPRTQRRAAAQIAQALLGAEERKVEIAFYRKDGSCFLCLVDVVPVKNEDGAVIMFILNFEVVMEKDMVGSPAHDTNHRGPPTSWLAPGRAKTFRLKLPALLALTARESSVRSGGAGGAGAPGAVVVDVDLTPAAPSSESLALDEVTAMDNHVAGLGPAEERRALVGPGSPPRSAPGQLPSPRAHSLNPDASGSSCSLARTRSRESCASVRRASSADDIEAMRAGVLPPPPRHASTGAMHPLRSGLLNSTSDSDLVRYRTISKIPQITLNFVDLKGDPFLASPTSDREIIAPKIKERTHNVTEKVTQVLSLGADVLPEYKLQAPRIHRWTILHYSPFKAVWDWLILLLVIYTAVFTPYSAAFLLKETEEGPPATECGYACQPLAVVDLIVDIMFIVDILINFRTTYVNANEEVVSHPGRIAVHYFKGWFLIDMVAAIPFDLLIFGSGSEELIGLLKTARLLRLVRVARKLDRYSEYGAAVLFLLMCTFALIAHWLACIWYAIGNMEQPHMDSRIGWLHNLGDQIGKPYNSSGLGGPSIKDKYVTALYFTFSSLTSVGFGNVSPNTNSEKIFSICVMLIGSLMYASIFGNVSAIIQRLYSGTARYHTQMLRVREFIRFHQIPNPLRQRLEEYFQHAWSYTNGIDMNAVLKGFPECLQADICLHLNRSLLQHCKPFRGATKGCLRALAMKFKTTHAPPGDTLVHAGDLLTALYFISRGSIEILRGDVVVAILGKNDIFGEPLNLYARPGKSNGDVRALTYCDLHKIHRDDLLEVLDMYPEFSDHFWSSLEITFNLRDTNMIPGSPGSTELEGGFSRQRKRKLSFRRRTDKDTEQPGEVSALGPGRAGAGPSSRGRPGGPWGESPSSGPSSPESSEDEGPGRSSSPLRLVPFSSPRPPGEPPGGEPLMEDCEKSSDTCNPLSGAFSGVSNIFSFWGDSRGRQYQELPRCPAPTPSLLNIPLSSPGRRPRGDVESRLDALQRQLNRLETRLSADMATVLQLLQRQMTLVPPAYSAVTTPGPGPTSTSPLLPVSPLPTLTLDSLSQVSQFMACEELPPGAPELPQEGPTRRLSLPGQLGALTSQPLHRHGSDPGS
Data set [16] concerns the target Muscarinic acetylcholine receptor M3 (Homo sapiens, UniProt P20309). As to the kind of experiment: Displacement of [3H]N-methylscopolamine from human muscarinic M3 receptor expressed in CHO Flp-In cells by liquid scintillation counting. It counts as cell-based.
Data set [17] has as its system Rattus norvegicus. The data set can be described thus: Increase in NREM sleep in CD IGS rat model of insomnia at 30 mg/kg, po after 4 hrs by EEG/EMG study relative to vehicle control. It counts as functional.
Data set [18] has as its system Rattus norvegicus. As to the kind of experiment: Effect on sleep-awake pattern in CD IGS rat model of insomnia assessed as latency to 20 secs REM sleep at 30 mg/kg, po by EEG/EMG study relative to vehicle control. It counts as functional.
Data set [19] concerns Rattus norvegicus. The data set can be described thus: Effect on sleep-awake pattern in CD IGS rat model of insomnia assessed as latency to 1 min NREM sleep at 30 mg/kg, po by EEG/EMG study relative to vehicle control. It counts as functional.
Data set [20] relates to Rattus norvegicus. The data set can be described thus: Increase in REM sleep in CD IGS rat model of insomnia at 30 mg/kg, po after 4 hrs by EEG/EMG study relative to vehicle control. Format: functional.
The nature of data set [21]: Drug level in rat brain at 30 mg/kg after 1 hr by LC-MS-MS analysis. It counts as ADME, organism-based. Details: dose 30 mg/kg. The conditions noted are these: read-out: Drug uptake.
Data set [22] in a line: Drug level in rat brain at 30 mg/kg after 4 hrs by LC-MS-MS analysis. Format: ADME, organism-based. Details: dose 30 mg/kg. As to conditions: read-out: Drug uptake.
For data set [23], the system named is Cynomolgus monkey. As to the kind of experiment: Cardiotoxicity in conscious cynomolgus monkey assessed as decrease in heart rate up to 200 mg/kg administered as escalated dose with 1 week washout period between doses by telemetry study. Format: toxicity, organism-based, Macaca fascicularis. Details: dose 200 mg/kg; scale not given: the % may be the effect or the level left. The conditions noted are these: in vivo, 168 h.

Data set [24] is described as follows: Plasma concentration in rat at 30 mg/kg, po after 1 hr.
A short description of data set [25]: in vitro. The conditions noted are these: rat, liver microsomes.
Data set [26] is described as follows: Systemic clearance in rat by LC-MS-MS analysis. The conditions noted are these: human, in vivo.

T1 sequence (P28223 whole entry): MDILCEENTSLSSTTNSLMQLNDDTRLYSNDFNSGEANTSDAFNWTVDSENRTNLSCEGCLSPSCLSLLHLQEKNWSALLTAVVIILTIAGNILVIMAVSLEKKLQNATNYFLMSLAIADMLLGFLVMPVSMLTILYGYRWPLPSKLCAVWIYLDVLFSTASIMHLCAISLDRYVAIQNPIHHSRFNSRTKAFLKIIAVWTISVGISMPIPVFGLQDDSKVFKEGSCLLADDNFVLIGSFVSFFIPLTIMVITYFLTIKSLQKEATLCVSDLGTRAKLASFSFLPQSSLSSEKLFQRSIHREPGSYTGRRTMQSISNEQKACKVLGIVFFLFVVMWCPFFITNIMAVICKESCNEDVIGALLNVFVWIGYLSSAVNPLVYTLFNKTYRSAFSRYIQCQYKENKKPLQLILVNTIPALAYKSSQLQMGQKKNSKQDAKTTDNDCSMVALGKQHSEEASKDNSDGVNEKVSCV
Sequence of Cytochrome P450 2D6 (P10635 whole entry): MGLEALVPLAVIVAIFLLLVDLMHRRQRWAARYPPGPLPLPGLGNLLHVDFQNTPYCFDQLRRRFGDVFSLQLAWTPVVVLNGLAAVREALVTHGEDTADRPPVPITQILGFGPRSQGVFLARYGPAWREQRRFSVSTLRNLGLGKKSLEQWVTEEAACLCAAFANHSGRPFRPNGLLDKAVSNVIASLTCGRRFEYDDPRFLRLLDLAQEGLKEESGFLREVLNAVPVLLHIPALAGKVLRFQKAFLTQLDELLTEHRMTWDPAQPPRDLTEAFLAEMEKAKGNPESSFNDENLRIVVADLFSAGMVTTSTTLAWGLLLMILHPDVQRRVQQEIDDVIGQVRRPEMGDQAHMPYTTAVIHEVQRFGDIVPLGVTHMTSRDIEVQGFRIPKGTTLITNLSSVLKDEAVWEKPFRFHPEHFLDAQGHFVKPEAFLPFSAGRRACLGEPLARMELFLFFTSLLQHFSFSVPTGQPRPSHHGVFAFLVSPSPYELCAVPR
Sequence of Muscarinic acetylcholine receptor M3 (P20309 whole entry): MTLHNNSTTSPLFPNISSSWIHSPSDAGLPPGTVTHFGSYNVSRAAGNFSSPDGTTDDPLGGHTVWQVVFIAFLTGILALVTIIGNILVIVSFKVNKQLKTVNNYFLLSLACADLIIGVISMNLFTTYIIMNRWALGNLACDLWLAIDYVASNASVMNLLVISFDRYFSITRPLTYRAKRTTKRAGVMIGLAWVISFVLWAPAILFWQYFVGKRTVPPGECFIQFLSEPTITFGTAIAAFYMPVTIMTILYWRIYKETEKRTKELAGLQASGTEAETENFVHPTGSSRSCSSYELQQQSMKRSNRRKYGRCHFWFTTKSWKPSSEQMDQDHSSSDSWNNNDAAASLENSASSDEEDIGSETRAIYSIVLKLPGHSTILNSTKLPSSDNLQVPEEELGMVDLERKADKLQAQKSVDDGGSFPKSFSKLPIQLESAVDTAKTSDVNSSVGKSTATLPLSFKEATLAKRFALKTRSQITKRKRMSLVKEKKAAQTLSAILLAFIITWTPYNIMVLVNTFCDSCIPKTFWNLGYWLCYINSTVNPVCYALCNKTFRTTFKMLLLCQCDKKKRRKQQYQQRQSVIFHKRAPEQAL

For the molecule `CN(C)CCC1=C(Cc2ccc(F)cc2)c2ccccc2C1`, the Ki is 140 nM in data set [1] and 0.6 nM in data set [5]. Also, in data set [2], the IC50 is 300 nM. The result in data set [3] was inactive. Moreover, the CLhep predicted at 1 h, 1 µM in [4] was 13 mL/min/kg.

`CN(C)CCC1=C(Cc2cnccn2)c2ccccc2C1`: the Activity in [6] is given as 79%; in data set [7] it was 92%; in [8], 113%; in [9], 159%. In addition, the Ki in data set [1] is 600 nM. Further, the outcome in data set [3] was inactive.

Regarding `CC(C1=C(CCN(C)C)Cc2ccccc21)c1ccccn1` (racemic), the values for the half-life in data set [10] and in data set [11] were 18 h and 5 h, respectively.

With `C[C@H](C1=C(CCN(C)C)Cc2ccccc21)c1ccccn1`, the Activity in [6] is 134%; in data set [14], 33%; in data set [7], 136%; in [8], 126%; in data set [9], 132%. Also, the “inhibition (INH)” value in [12] is on record as “Not Active”. The figures for the IC50 in data set [2] and in data set [15] were 32500 nM and 900 nM, respectively. In addition, the values for the Ki in data set [13] and in [5] were 2400 nM and 0.4 nM, respectively. Moreover, the result in data set [3] was inactive. In addition, the CLhep predicted at 1 h, 1 µM in data set [4] was 7 mL/min/kg.

As for `C[C@@H](c1ccccn1)c1c(CCN(C)C)oc2ccccc12`, the Ki stood at 320 nM in [13], 76 nM in data set [16] and 0.9 nM in data set [5]. In data set [14], this molecule had an Activity of 62%. Further, the result in [3] was inactive. Moreover, the CLhep predicted at 1 h, 1 µM in data set [4] was 10 mL/min/kg.

For `Cc1ccc(-c2nc3ccc(C)cn3c2CC(=O)N(C)C)cc1` [ZOLPIDEM], the Activity came to 220% in data set [17], 199% in data set [18], 18% in data set [19] and 42% in data set [20].

As for `C[C@H](C1=C(CCN(C)C)Cc2ccccc21)c1cnccn1`, the Activity amounted to 109% in [6]; 32% in [14]; 104% in data set [7]; 129% in [8]; 145% in data set [9]. Moreover, the outcome in data set [3] was inactive.

For `CN(C)CCc1sc2ccccc2c1Cc1cnccn1`, the result in data set [3] was inactive. Besides, the inhibition constant Ki in data set [5] is 75 nM.

For `C[C@@H](c1ccccn1)c1c(CCN(C)C)sc2ccccc12`, the values for the concentration at 1 h in data set [21] and in data set [24] were 29 ng/mL and 4 ng/mL, respectively. In addition, the figures for the half-maximal inhibitory concentration (IC50) in data set [2] and in data set [15] were 28200 nM and 1400 nM, respectively. For the same molecule, the Ki in data set [13] is 5300 nM; in data set [5], 4 nM. In addition, the Activity in data set [14] was 31%; in data set [17] it was 142%; in [18] it was 138%; in [23], 16%; in data set [19], 124%; in [20] it was 167%. Also, the concentration at 4 h in [22] turned out to be 23 ng/mL. Further, the result in [3] was inactive. In addition, the CLhep predicted at 1 h, 1 µM in data set [4] is 10 mL/min/kg. The CLint scaled at 1 h, 1 µM in [25] amounted to 2300 mL/min/kg. The clearance in [26] is 5.2 mL/min/kg.

On to `CN(C)CCc1sc2ccccc2c1Cc1ccc(F)cc1`, for which the inhibition constant (Ki) in data set [1] came to 90 nM; in data set [13], 2000 nM; in data set [5], 11 nM. In [2], the IC50 turned out to be 200 nM. The outcome in data set [3] was inactive. The CLhep predicted at 1 h, 1 µM in [4] is 16 mL/min/kg.

Broadly, the Ki is a measure of affinity in units of concentration, obtained from inhibition or displacement. What is called IC50 is the concentration at which inhibition is half-maximal. The term CLint scaled denotes the rate of metabolic loss divided by the concentration. For orientation: clearance means a measure of how efficiently the substance is removed, as volume per time.
